Values joined by “and” are separate entries in the source; they are usually repeats but may differ in a detail not shown here. Equal entries are not always repeated. “Also recorded” adds a separate entry of the source.
Legend:
[1] = system: Plasmodium berghei luciferase sporozoites; set-up: method as in PMID 25147620; details: single dose of 7.5 mg/kg after sporozoite infection; cited from earlier work
[2] = system: P. cynomolgi sporozoite-infected rhesus macaques (hypnozoites, relapse); experiment: Radical cure in P. cynomolgi sporozoite-infected rhesus macaques; format: in vivo, Plasmodium cynomolgi
Description: (§1) Sporozoites were harvested from P. cynomolgi-infected mosquitoes, washed with phosphate-buffered saline (PBS), and diluted to 100,000 sporozoites (spz)/ml in PBS. One-milliliter aliquots of sporozoites were prepared and injected into monkeys via intravenous (i.v.) injection.
Monkeys were treated according to the schedule shown in Table 1 (stratification of treatment groups is given in the supplemental material). During treatment, monkeys were weighed daily and received the compound via gavage, followed by gastric feeding (weight change during treatment is shown in Table S6 in the supplemental material). Monkeys in the prophylaxis groups (groups 691-proph and 599-proph) were treated ∼20 min after the i.v. sporozoite injection. The other monkeys were treated when all the monkeys in the experiment (except those in the prophylaxis group) were blood-stage patent (at day 11 p.i.). To kill the blood-stage parasites, all monkeys received a 5-day treatment of 7.5 mg/kg of body weight of chloroquine (CQ) (intramuscular [i.m.] injection), during compound dosing. KDU691 was formulated in 0.5% methylcellulose and 0.5% Tween 80 in water. LMV599 was formulated as a solid dispersion in a solution containing 5.6% (wt/wt) Tween 80–44.4% hydroxypropyl methylcellulose (HPMC) E3–38.9% Soluplus–11.1% vitamin E D-alphatocopheryl polyethylene glycol 1000 succinate (TPGS).
Parasitemia was closely monitored by thin-film analysis. Animals were trained to present for thigh pricks, which was followed by a reward. Thin-film slides were stained with 20% Giemsa stain, and at least 50 fields (±20,000 erythrocytes [RBCs]) were analyzed with a bright-field microscope (×1,200 magnification). As soon as all monkeys other than the prophylactic treatment groups were blood-stage positive, treatment was started as indicated above (Table 1). After the last day of compound dosing, the absence of blood-stage parasites was confirmed by thin smears. From day 23 p.i., monkeys were monitored daily for relapses. The KDU691 radical-cure (group 691-RC) treatment and control groups were monitored until the first relapse. The LMV599 control (group 599-C), radical-cure (group 599-RC), and PQ radical-cure (group PQ-RC) treatment groups were monitored until the second relapse or until day 100 p.i. (whichever came first). At the end of the study, monkeys that had relapsed received a 14-day primaquine treatment, with a final check 2 weeks after the last primaquine dose.
P. cynomolgi sporozoite production
A monkey was infected with […] P. cynomolgi M strain blood stage parasites, thawed from a first passage stock (i.e. blood stage parasites from a monkey infected with P. cynomolgi M strain sporozoites). For each batch of sporozoites needed, a single monkey was infected with P. cynomolgi blood stage parasites.
At day 11 and 12 post infection 9 mL infected blood was collected into a Lithium-heparinised tube. The blood was kept at 38°C and fed approximately 500 three to five days old female Anopheles stephensi mosquitoes Sind-Kasur strain Nijmegen (Nijmegen University Medical Centre St Radboud, Department of Medical Microbiology) using a glass feeder system as described by Ponnudurai et al.. After the second bleed, the monkey was cured by three daily intramuscular injections of 7.5 mg/kg chloroquine, monitored for parasite clearance 24 days after chloroquine treatment and returned to colony.
Mosquitoes were kept in climate chambers at 25 °C and 80% humidity and were fed 5% D -glucose on cotton pads daily. Seven days after feeding on the infected rhesus blood, oocyst numbers were determined in midguts of ten individuals, using 1% mercurochrome stain. Mosquitoes were given a second (uninfected) blood meal immediately afterwards to promote sporozoite maturation and invasion of the salivary glands. Sporozoites were isolated from the P. cynomolgi infected mosquitoes around day16 after the infected blood meal.
In vivo monkey infection and treatment procedures […]

[3] = system: P. cynomolgi sporozoite-infected rhesus macaques; experiment: Causal prophylaxis in P. cynomolgi sporozoite-infected rhesus macaques; format: in vivo, Plasmodium cynomolgi; details: 20 mg/kg oral for 5 days from day 0, 4 monkeys, follow-up until day 102 p.i.
Description: as §1
Monkeys were treated according to the schedule shown in Table 1 (stratification of treatment groups is given in the supplemental material). During treatment, monkeys were weighed daily and received the compound via gavage, followed by gastric feeding (weight change during treatment is shown in Table S6 in the supplemental material). […]
Parasitemia was closely monitored by thin-film analysis. […] Thin-film slides were stained with 20% Giemsa stain, and at least 50 fields (±20,000 erythrocytes [RBCs]) were analyzed with a bright-field microscope (×1,200 magnification). […] From day 23 p.i., monkeys were monitored daily for relapses. The KDU691 radical-cure (group 691-RC) treatment and control groups were monitored until the first relapse. The LMV599 control (group 599-C), radical-cure (group 599-RC), and PQ radical-cure (group PQ-RC) treatment groups were monitored until the second relapse or until day 100 p.i. […]
The prophylaxis groups were monitored daily until day 22 p.i. From day 22 to day 45 p.i., they were monitored three times a week, and from day 45 to day 105 p.i. (100 days after treatment), they were monitored twice a week. […]

[4] = system: P. cynomolgi hypnozoites in primary rhesus hepatocytes; experiment: In vitro liver-stage drug assay with P. cynomolgi, small forms (hypnozoites); format: cell-based, Plasmodium cynomolgi; details: compound exposure 6 days, mean of several (9) independent assays, read-out: IC50 against hypnozoites (small forms)
Description: In vitro infections of primary rhesus hepatocytes with P. cynomolgi sporozoites were performed according to methods described previously by Zeeman et al. ([10]). At day 6 postinfection (p.i.), the assay mixtures were fixed and stained with anti-P. cynomolgi Hsp70 rabbit antiserum and a fluorescein isothiocyanate (FITC)-labeled secondary antibody (goat anti-rabbit). Plates were analyzed with the Operetta high-content imaging system, differentially counting hypnozoites and developing extraerythrocytic forms (EEFs), based on parasite size ([10]).
In vitro activity against P. cynomolgi liver stages was determined for both compounds. The numbers of small (hypnozoites) and large (developing EEFs) parasites were determined by using Operetta and image analysis of primary rhesus hepatocyte cultures infected with P. cynomolgi sporozoites and exposed to the compound for 6 days ([10]). […] IC50s were determined by using the least-squares nonlinear regression method (Prism) for small and large parasites. Data from several independent experiments were used to calculate the IC50s for the two compounds.

SMILES: CNC(=O)c1ccc(-c2cnc3cnc(C(=O)N(C)c4ccc(Cl)cc4)cn23)cc1 [KDU691]
- causal prophylactic protection in mice [1]: complete protection
- radical-cure outcome ([2]; five daily oral doses of 20 mg/kg from day 11 p.i., 20 mg/kg): did not prevent relapse; also recorded: none of the animals treated with KDU691 were radically cured
- Day p.i. to first relapse ([2]; group 691-RC, 20 mg/kg oral for 5 days from day 11 p.i. plus CQ, individual monkeys): 31 day p.i. and 32 day p.i.
- day p.i. to first relapse, group mean ± SD ([2]; group 691-RC, 20 mg/kg oral for 5 days from day 11 p.i., control 25 ± 1.4): 31.8 ± 0.5 days p.i.
- delay to relapse compared to the control group ([2]; group 691-RC, 20 mg/kg oral for 5 days, P = 0.00912, log rank test): 6.8 days
- Day p.i. to primary parasitemia ([2]; group 691-RC, individual monkeys, baseline, before dosing started at day 11 p.i.): 9 day p.i.
- causal prophylactic outcome (blood-stage parasitemia) [3]: fully protective; also recorded: completely effective; also recorded: eradicated all liver-stage parasites, including hypnozoites
- IC50 [4]: 180 ± 210 nM

— PMC4862498, “PI4 Kinase Is a Prophylactic but Not Radical Curative Target in Plasmodium vivax-Type Malaria Parasites” (Antimicrobial Agents and Chemotherapy, 2016)
